Assay results published in patent US8927715B2, “Inhibitors of 11β-hydroxysteroid dehydrogenase type 1” (Vitae Pharmaceuticals, Inc., priority 2006, dated 2015).

The compounds below were run against human 11β-HSD1 (Homo sapiens, UniProt P28845) (assay: Inhibition of a microsomal preparation of 11β-HSD1, SPA (Biological Test Example 2)). Conditions: read-out: Biological Test Example 2 (IC50 class).
Type: biochemical
Set-up: expressed in transfected cells; host or cells: CHO cells (microsomes)
Experimental: All reactions are carried out at room temperature in 96 well clear flexible PET Microbeta plates (PerkinElmer). […] After a 10 minute pre-incubation, 50 μL of enzyme solution containing microsomes isolated from CHO cells overexpressing human 11β-HSD1 (10-20 μg/ml of total protein) is added, and the plates are then incubated for 90 minutes at room temperature. The reaction is stopped by adding 50 μl of the SPA beads suspension containing […] 18β-glycyrrhetinic acid, 5 mg/ml protein A coated YSi SPA beads (GE Healthcare) and 3.3 μg/ml of anti-cortisol antibody (East Coast Biologics) in Superblock buffer (Bio-Rad). The plates are then shaken for 120 minutes at room temperature, and the SPA signal corresponding to [^3H]cortisol is measured on a Microbeta plate reader.

Chain of human 11β-HSD1 (P28845 whole entry): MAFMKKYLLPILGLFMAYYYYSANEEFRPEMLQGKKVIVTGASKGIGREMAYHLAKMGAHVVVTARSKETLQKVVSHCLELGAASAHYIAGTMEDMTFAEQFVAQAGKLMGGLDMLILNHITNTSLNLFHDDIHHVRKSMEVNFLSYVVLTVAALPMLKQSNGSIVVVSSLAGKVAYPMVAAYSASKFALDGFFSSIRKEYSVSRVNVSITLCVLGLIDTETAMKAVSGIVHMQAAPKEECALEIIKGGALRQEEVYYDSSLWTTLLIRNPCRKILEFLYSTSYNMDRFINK

**Q.** With `C=CCC1OC2(CCN(C(=O)NC3C4CC5CC(C4)CC3C5)CC2)c2c(Cl)cccc21` (stereo not shown) [Example 102, 3-Allyl-7-chloro-N-(2-adamantyl)-3H-spiro[isobenzofuran-1,4′-piperidine]-1′-carboxamide] as the compound, how does the IC50 read?
**A.** The IC50 was < 50 nM.

**Q.** For `O=C(O)CCC(=O)N1CC2(CCN(C(=O)NC3C4CC5CC(C4)CC3C5)CC2)c2ccccc21` (stereo not shown) [Example 90, 4-(1′-(2-Adamantylcarbamoyl)spiro[indoline-3,4′-piperidine]-1-yl)-4-oxobutanoic acid], which IC50 is on record?
**A.** The IC50 was < 50 nM.

**Q.** Which IC50 does the source give for `NC(=O)CC1CC2(CCN(C(=O)NC3C4CC5CC(C4)CC3C5)CC2)c2c(Br)cccc21` (racemic) [Example 131, (±)-3-(2-amino-2-oxoethyl)-7-bromo-N-(2-adamantyl)-2,3-dihydrospiro[indene-1,4′-piperidine]-1′-carboxamide] here?
**A.** Its IC50 is < 50 nM.

**Q.** With `CCOC(=O)CC1CC2(CCN(C(=O)NC34CC5CC(CC(C5)C3)C4)CC2)c2c(Br)cccc21` (racemic) [Example 61, (±)-Ethyl 2-(7-bromo-1′-((1-adamantyl)carbamoyl)-2,3-dihydrospiro[indene-1,4′-piperidine]-3-yl)acetate] as the compound, how does the IC50 read?
**A.** Its IC50 is < 50 nM.

**Q.** With `COC(=O)CC1CCC2(CC1)CCN(C(=O)NC1C3CC4CC(C3)CC1C4)CC2` (stereo not shown) [Example 81, Methyl 2-(3-((2-adamantyl)carbamoyl)-3-azaspiro[5.5]undecan-9-yl)acetate] as the compound, how does the IC50 read?
**A.** Its IC50 is < 50 nM.

**Q.** For `CCOC(=O)C(C)(C)C1CC2(CCN(C(=O)NC3C4CC5CC(C4)CC3C5)CC2)c2c(Br)cccc21` (racemic) [Example 67, (±)-Ethyl 2-(7-bromo-1′-((2-adamantyl)carbamoyl)-2,3-dihydrospiro[indene-1,4′-piperidine]-3-yl)-2-methylpropanoate], which IC50 is on record?
**A.** Its IC50 is < 50 nM.

**Q.** For `COC(=O)CC1CCC2(CC1)CCN(C(=O)OC1C3CC4CC(C3)CC1C4)CC2` (stereo not shown) [Example 79, (2-Adamantyl) 9-(2-methoxy-2-oxoethyl)-3-azaspiro[5.5]undecane-3-carboxylate], which IC50 is on record?
**A.** The IC50 was < 50 nM.

**Q.** `CC(C)(C)OC(=O)N1Cc2ccccc2C2(CCN(C(=O)OC3C4CC5CC(C4)CC3C5)CC2)C1` (stereo not shown) [Example 37, 2-Tert-butyl 1′-(2-adamantyl) 1H-spiro[isoquinoline-4,4′-piperidine]-1′,2(3H)-dicarboxylate] was tested. Which IC50 did it give?
**A.** Its IC50 is < 50 nM.

**Q.** For `CCOC(=O)CC1CC2(CCN(C(=O)NC3C4CC5CC(C4)CC3C5)CC2)c2cc(Cl)ccc21` (racemic) [Example 53, (±)-Ethyl 2-(1′-((2-adamantyl)carbamoyl)-6-chloro-2,3-dihydrospiro[indene-1,4′-piperidine]-3-yl)acetate], which IC50 is on record?
**A.** The IC50 was < 50 nM.

**Q.** For `COc1ccc2c(c1)CCNC21CCN(C(=O)NC2C3CC4CC(C3)CC2C4)CC1` (stereo not shown) [Example 77, N-(2-Adamantyl)-6-methoxy-3,4-dihydro-2H-spiro[isoquinoline-1,4′-piperidine]-1′-carboxamide], which IC50 is on record?
**A.** Its IC50 is < 50 nM.

**Q.** For `O=C(O)CC1CC2(CCN(C(=O)NC3C4CC5CC(C4)CC3C5)CC2)c2c(Br)cccc21` (racemic) [Example 43, (±)-2-(7-Bromo-1′-((2-adamantyl)carbamoyl)-2,3-dihydrospiro[indene-1,4′-piperidine]-3-yl)acetic acid], which IC50 is on record?
**A.** The IC50 was < 50 nM.

**Q.** For `O=C(NC1C2CC3CC(C2)CC1C3)N1CCC2(CCCc3ccccc32)CC1` (stereo not shown) [Example 78, N-(2-Adamantyl)-3,4-dihydro-2H-spiro[naphthalene-1,4′-piperidine]-1′-carboxamide], which IC50 is on record?
**A.** The IC50 was < 50 nM.

**Q.** For `COC(=O)CCS(=O)(=O)N1Cc2ccccc2C2(CCN(C(=O)OC3C4CC5CC(C4)CC3C5)CC2)C1` (stereo not shown) [Example 107, 2-Adamantyl 2-(3-methoxy-3-oxopropylsulfonyl)-2,3-dihydro-1H-spiro[isoquinoline-4,4′-piperidine]-1′-carboxylate], which IC50 is on record?
**A.** Its IC50 is < 50 nM.

**Q.** For `O=C(OC1C2CC3CC(C2)CC1C3)N1CCC2(CC1)CNCc1ccccc12` (stereo not shown) [Example 38, 2-Adamantyl 2,3-dihydro-1H-spiro[isoquinoline-4,4′-piperidine]-1′-carboxylate], which IC50 is on record?
**A.** The IC50 was < 50 nM.

**Q.** Which IC50 does the source give for `O=C(NC1C2CC3CC(C2)CC1C3)N1CCCC2(Cc3ccccc3C2O)C1` (stereo not shown) [27, Step 2 Product] here?
**A.** The IC50 was < 50 nM.

**Q.** With `CN(C)CCN(C)C(=O)CC1CC2(CCN(C(=O)NC3C4CC5CC(C4)CC3C5)CC2)c2c(Br)cccc21` (stereo not shown) [Example 116] as the compound, how does the IC50 read?
**A.** The IC50 was < 50 nM.

**Q.** Which IC50 does the source give for `CNC(=O)N1Cc2ccccc2C2(CCN(C(=O)NC3C4CC5CC(C4)CC3C5)CC2)C1` (stereo not shown) [Example 35, N1′-(2-Adamantyl)-N2-methyl-1H-spiro[isoquinoline-4,4′-piperidine]-1′,2(3H)-dicarboxamide] here?
**A.** Its IC50 is < 50 nM.

**Q.** How did the IC50 turn out when `CS(=O)(=O)NC(=O)CC1CC2(CCN(C(=O)NC3C4CC5CC(C4)CC3C5)CC2)c2c(Br)cccc21` (racemic) [Example 70, (±)-7-Bromo-N-(2-adamantyl)-3-(2-(methylsulfonamido)-2-oxoethyl)-2,3-dihydrospiro[indene-1,4′-piperidine]-1′-carboxamide] was run?
**A.** The IC50 was < 50 nM.

**Q.** With `O=C(O)CC1CC2(CCN(C(=O)NC34CC5CC(CC(C5)C3)C4)CC2)c2c(Br)cccc21` (racemic) [Example 62, (±)-2-(7-Bromo-1′-((1-adamantyl)carbamoyl)-2,3-dihydrospiro[indene-1,4′-piperidine]-3-yl)acetic acid] as the compound, how does the IC50 read?
**A.** The IC50 was < 50 nM.

**Q.** Which IC50 does the source give for `CC(C)S(=O)(=O)N1Cc2ccccc2C2(CCN(C(=O)OC3C4CC5CC(C4)CC3C5)CC2)C1` (stereo not shown) [Example 40, 2-Adamantyl 2-(isopropylsulfonyl)-2,3-dihydro-1H-spiro[isoquinoline-4,4′-piperidine]-1′-carboxylate] here?
**A.** Its IC50 is < 50 nM.

**Q.** `COc1ccc2c(c1)C1(CCN(C(=O)NC3C4CC5CC(C4)CC3C5)CC1)CC2CC(=O)O` (racemic) [Example 59, (±)-2-(1′-((2-Adamantyl)carbamoyl)-6-methoxy-2,3-dihydrospiro[indene-1,4′-piperidine]-3-yl)acetic acid] was tested. Which IC50 did it give?
**A.** The IC50 was < 50 nM.

**Q.** How did the IC50 turn out when `NCC1CC2(CCN(C(=O)OC3C4CC5CC(C4)CC3C5)CC2)c2c(Br)cccc21` (racemic) [Example 124, (±)-2-Adamantyl 3-(aminomethyl)-7-bromo-2,3-dihydrospiro[indene-1,4′-piperidine]-1′-carboxylate] was run?
**A.** The IC50 was < 50 nM.

**Q.** For `O=C(O)CC1CC2(CCN(C(=O)NC3C4CC5CC(C4)CC3C5)CC2)c2c(Cl)cccc21` (racemic) [Example 52, (±)-2-(1′-((2-Adamantyl)carbamoyl)-7-chloro-2,3-dihydrospiro[indene-1,4′-piperidine]-3-yl)acetic acid], which IC50 is on record?
**A.** Its IC50 is < 50 nM.

**Q.** How did the IC50 turn out when `CC1(C)NC2(CCN(C(=O)NC3C4CC5CC(C4)CC3C5)CC2)c2c(Cl)cccc21` (stereo not shown) [Example 104, 7-Chloro-N-(2-adamantyl)-3,3-dimethylspiro[isoindoline-1,4′-piperidine]-1′-carboxamide] was run?
**A.** Its IC50 is < 50 nM.

**Q.** `O=C(O)CC1CC2(CCN(C(=O)OC3C4CC5CC3CC(C(=O)NCc3ccccc3)(C5)C4)CC2)c2ccccc21` (stereo not shown) [Example 89, 2-(1′-((1-(Benzylcarbamoyl)-4-adamantyloxy)carbonyl)-2,3-dihydrospiro[indene-1,4′-piperidine]-3-yl)acetic acid] was tested. Which IC50 did it give?
**A.** Its IC50 is 50 to 1000 nM.

**Q.** For `O=C(NC1C2CC3CC(C2)CC1C3)N1CCC2(CC1)NCc1ccccc12` (stereo not shown) [Example 87, N-(2-Adamantyl)spiro[isoindoline-1,4′-piperidine]-1′-carboxamide], which IC50 is on record?
**A.** The IC50 was < 50 nM.

**Q.** For `CS(=O)(=O)NC(=O)CC1CC2(CCN(C(=O)OC3C4CC5CC(C4)CC3C5)CC2)c2c(Br)cccc21` (racemic) [Example 69, (±)-2-Adamantyl 7-bromo-3-(2-(methylsulfonamido)-2-oxoethyl)-2,3-dihydrospiro[indene-1,4′-piperidine]-1′-carboxylate], which IC50 is on record?
**A.** The IC50 was < 50 nM.

**Q.** With `O=C(O)CC1CC2(CCN(C(=O)NC3C4CC5(O)CC3CC(O)(C4)C5)CC2)c2c(Br)cccc21` (racemic) [Example 76, (±)-2-(7-Bromo-1′-(1,7-dihydroxy-4-adamantylcarbamoyl)-2,3-dihydrospiro[indene-1,4′-piperidine]-3-yl)acetic acid] as the compound, how does the IC50 read?
**A.** The IC50 was 50 to 1000 nM.

**Q.** `CC(C)(CC(=O)N1Cc2ccccc2C2(CCN(C(=O)NC3C4CC5CC(C4)CC3C5)CC2)C1)C(=O)O` (stereo not shown) [Example 97, 4-(1′-(2-Adamantylcarbamoyl)-1H-spiro[isoquinoline-4,4′-piperidine]-2(3H)-yl)-2,2-dimethyl-4-oxobutanoic acid] was tested. Which IC50 did it give?
**A.** The IC50 was < 50 nM.

**Q.** For `CN1CCN(CCNC(=O)CC2CC3(CCN(C(=O)NC4C5CC6CC(C5)CC4C6)CC3)c3c(Br)cccc32)CC1` (stereo not shown) [Example 121, 7-Bromo-N-(2-adamantyl)-3-(2-(2-(4-methylpiperazin-1-yl)ethylamino)-2-oxoethyl)-2,3-dihydrospiro[indene-1,4′-piperidine]-1′-carboxamide], which IC50 is on record?
**A.** The IC50 was < 50 nM.

**Q.** `O=C(CC1CC2(CCN(C(=O)NC3C4CC5CC(C4)CC3C5)CC2)c2c(Br)cccc21)N1CCNCC1` (stereo not shown) [Example 110, 7-Bromo-N-(2-adamantyl)-3-(2-oxo-2-(piperazin-1-yl)ethyl)-2,3-dihydrospiro[indene-1,4′-piperidine]-1′-carboxamide] was tested. Which IC50 did it give?
**A.** Its IC50 is < 50 nM.

**Q.** For `O=C(CC1CC2(CCN(C(=O)NC3C4CC5CC(C4)CC3C5)CC2)c2c(Br)cccc21)NCCN1CCNCC1` (stereo not shown) [Example 119, 7-Bromo-N-(2-adamantyl)-3-(2-oxo-2-(2-(piperazin-1-yl)ethylamino)ethyl)-2,3-dihydrospiro[indene-1,4′-piperidine]-1′-carboxamide], which IC50 is on record?
**A.** Its IC50 is < 50 nM.

**Q.** Which IC50 does the source give for `O=C(NC1C2CC3CC(C2)CC1C3)N1CCCC2(Cc3ccccc3C2=O)C1` (stereo not shown) [27, Step 1 Product] here?
**A.** The IC50 was < 50 nM.

**Q.** How did the IC50 turn out when `O=C(NC1C2CC3CC(C2)CC1C3)N1CCC2(CCc3ccccc32)CC1` (stereo not shown) [Example 28, N-(2-Adamantyl)-2,3-dihydrospiro[indene-1,4′-piperidine]-1′-carboxamide] was run?
**A.** Its IC50 is < 50 nM.
